Consider six compounds from patent US9309225B2, “N-((1-benzyl-1H-1,2,3-triazol-4-yl)methyl)arylamide compounds as potential anticancer agents and a process for the preparation thereof” (COUNCIL OF SCIENTIFIC & INDUSTRIAL RESEARCH, priority 2013, dated 2016).

Data set [1] deals with A549. Description: IC50 of compounds and E7010 against A549 cell line. It counts as cell-based. From the text:
(§1) In the present investigation, an attempt has been made, in view of the biological importance of both 2-anilino nicotinyl structure and 1,2,3-triazoles group. […] Introduction of triazole group on 2-anilino nicotinyl moiety resulted that there is enhancement of biological activity of representative compounds (1a, 1b, 1c, 1d, 1f, 1g, 1i, 1k, 6b and 6g) compare with E7010. Biological data of representative compounds has been provided in Table 1. • (Novel sulfonamides as potential, systemically active antitumor agents. Yoshino, H.; Ueda, N.; Niijima, J.; Sugumi, H.; Kotake, Y.; Koyanagi, N.; Yoshimatsu, K.; Asada, M.; Watanabe, T.; Nagasu, T. J. Med. Chem. 1992, 35, 2496-2497)

In data set [2] the test system is MCF-7. Briefly: IC50 of compounds and E7010 against MCF-7 cell line. It counts as cell-based.
Excerpt: as §1

In data set [3] the test system is A549. The following applies: A549 cell line; E7010 comparison value (Chem MedChem 2012, 7, 680-693); cited from earlier work.
Data set [4] relates to MCF-7. The following applies: MCF-7 cell line; E7010 comparison value (Chem MedChem 2012, 7, 680-693); cited from earlier work.
[5] abbreviates: Homo sapiens, A549, A549 cell line.
The mark [6] stands for this setting: Homo sapiens, MCF7, MCF-7 cell line.

Where two headings read alike, the source gives them in different places.

As a reminder, the melting point is the temperature, or range, at which the solid turns liquid. The compound `O=C(NCc1cn(Cc2cccc(Oc3ccccc3)c2)nn1)c1cccnc1Nc1ccc(Cl)cc1` [Compound 1c, 2-(4-Chlorophenylamino)-N-((1-(3-phenoxybenzyl)-1H-1,2,3-triazol-4-yl)methyl)nicotinamide] returned a melting point of 127 to 129 °C.
The IC50 is the concentration at which inhibition is half-maximal. Turning to `O=C(NCc1cn(Cc2cccc(Oc3ccccc3)c2)nn1)c1cccnc1Nc1cccc(F)c1` [Compound 1f, 2-(3-Fluorophenylamino)-N-((1-(3-phenoxybenzyl)-1H-1,2,3-triazol-4-yl)methyl) nicotinamide], the melting point lay within 130 to 132 °C. This compound showed an IC50 in the data set with A549 [1] (A549 cell line) of 1900 nM. For the same compound, in the data set with A549 [1] (setting [5]), the IC50 fell in the range of 1250 to 3980 nM.
On to `COc1cc(Cn2cc(CNC(=O)c3cccnc3Nc3ccc(OC)cc3OC)nn2)cc(OC)c1` [Compound 6g, N-((1-(3,5-Dimethoxybenzyl)-1H-1,2,3-triazol-4-yl)methyl)-2-((2,4-dimethoxyphenyl)amino)nicotinamide], for which the melting point fell in the range of 147 to 149 °C. This compound registered an IC50 with A549 [1] (A549 cell line) of 1310 nM. Further, the IC50 in the data set with A549 [1] (setting [5]) was 1250 to 3980 nM. Besides, in the data set on MCF-7 [2] (setting [6]), the IC50 is 740 to 2510 nM. Besides, in the data set with MCF-7 [2] (MCF-7 cell line), 1170 nM corresponded to half-maximal inhibition (IC50).
As to `COc1ccc(S(=O)(=O)Nc2cccnc2Nc2ccc(O)cc2)cc1` [Compound E7010], the results for the IC50 in the data set with A549 [3] and in the data set with MCF-7 [4] were 4450 nM and 9060 nM, respectively.
On to `COc1cc(Cn2cc(CNC(=O)c3cccnc3Nc3ccc(F)cc3)nn2)cc(OC)c1` [Compound 6b, N-((1-(3,5-Dimethoxybenzyl)-1H-1,2,3-triazol-4-yl)methyl)-2-((4-fluorophenyl)amino) nicotinamide], for which the melting point lay within 140 to 142 °C. For the same compound, the IC50 with A549 [1] (A549 cell line) amounted to 1250 nM. Besides, the IC50 with A549 [1] (setting [5]) was in the range of 1250 to 3980 nM. The compound further yielded an IC50 in the data set on MCF-7 [2] (setting [6]) of 740 to 2510 nM. For the same compound, the IC50 in the data set on MCF-7 [2] (MCF-7 cell line) is 1000 nM.
`O=C(NCc1cn(Cc2cccc(Oc3ccccc3)c2)nn1)c1cccnc1Nc1ccc(Br)cc1` [Compound 1d, 2-(4-Bromophenylamino)-N-((1-(3-phenoxybenzyl)-1H-1,2,3-triazol-4-yl)methyl)nicotinamide]: the melting point lay within 160 to 162 °C. Further, the IC50 in the data set with A549 [1] (A549 cell line) is 1900 nM. Besides, in the data set on A549 [1] (setting [5]), the IC50 lay in the range of 1250 to 3980 nM. For the same compound, the IC50 in the data set on MCF-7 [2] (setting [6]) was in the range of 740 to 2510 nM. This compound also registered an IC50 with MCF-7 [2] (MCF-7 cell line) of 970 nM.
